Data as given in patent publication US10952434B2, “Compositions and methods for attracting insects” (The United States of America, as Represented by the …, priority 2016, dated 2021).

Columns and labels:
[1] = system: female Aedes aegypti; assay: Flight tunnel mosquito bioassay; type: in vivo; details: for fed (mean of triplicates) / probed (mean of triplicates): paired with control; for feeding attraction, in words: three different concentrations
Description: Mosquitoes: Aedes aegypti (Liverpool) were reared in an insectary using standard rearing procedures. Approximately 50 larvae were reared in plastic cups (13×7×7.5 cm) at 27±1° C., and were fed ground up fish pellets. Adults were contained in plastic cartons covered by nylon screening and were fed using cotton pads soaked in a 10% glucose solution. Prior to blood feeding, 20 adult females, approximately 6 to 8 days old, were aspirated out of the rearing cartons and placed in to a stock cage (20×20×20 cm). Flight Tunnel Mosquito Bioassay: The assay system consists of a six well reservoir placed at the upwind end of a flight tunnel ([…]). Temperature and humidity of the flight tunnel were maintained at rearing conditions as described above. Air was constantly pushed through the flight tunnel at a wind speed of 35 ft/min. The four center wells of the six well reservoir were utilized in these bioassays. One of the 3 cm×4 cm wells contained 6 ml of citrate-phosphate-dextrose-adenine (CPDA) solution and three wells contained 6 ml of CPDA solution supplemented with adenosine triphosphate (ATP) (Sigma Chemical Co., St. Louis, Mo.). A constant-temperature water circulator warmed the reservoir to 38° C. A collagen membrane (Devro, Sandy Run, S.C.) was placed over the wells and secured to the reservoir with a light coat of high-vacuum grease (Dow Corning Corp., Midland, Mich.). The membranes were replaced after each replicate observation and additional substrate was added as needed. The reservoir and CPDA solution was used for one replicate. Twenty mosquitoes were aspirated into a cylindrical release canister (20.5 mm×7 mm) containing a mesh screen on one end and a damper on the opposite end (Precision Plastics, Inc., Beltsville, Md.). Mosquitoes were allowed to acclimate in the canister for ten minutes and then were utilized in bioassays. The canister was placed downwind of the reservoir in the flight tunnel. Human breath was introduced in a plume into the tunnel for one minute prior to opening of the release canister. Mosquitoes were then released into the flight tunnel where the number of mosquitoes biting (proboscis inserted through the membrane) within each cell during the 10-min exposure was recorded. The solution in each well consisted of either CPDA in deionized water or one of the three experimental solutions, 10^−2M, 10^−3 M, or 10^−4 M ATP with CPDA, each marked with a randomly assigned food dye color (Betty Crocker). The position of each colored solution in the reservoir was also randomized. Mosquitoes were used once in a test and then aspirated for determination of engorgement. Several attractant candidates were compared one on one with each other, and with CO2 in the flight tunnel to evaluate efficacy.

[2] = system: female Aedes aegypti; assay: K&D module high-throughput feeding assay; type: in vivo; details: Deet standard (4.54 nmol/μl); five females/cell
Description: Highthrouhput Feeding Assay: The K&D module was developed at USDA for evaluating feeding deterrence and toxicity of candidate topical repellents against hemophagus arthropod vectors (Klun, J. A., and M. Debboun, J. Med. Entomol., 37: 177-181 (2000)). In the present study the K&D module was used as a highthrouhput screening tool to evaluate response of Ae. aegypti to attractant\feeding stimuli.
In vitro bioassays were conducted as described by Klun et. al., 2000. […] The three treatments were randomly assigned to consecutive cells in 2,6-cell reservoirs connected in series to a single water-bath pump; thus, 4 replicates could be tested/run.
Tests were performed in an Air Science USA hood, with an air movement velocity of approx. 110-120 ft./min., temperature of 25-27° C., and RH of 15-25%. A six-celled reservoir was connected to and heated by a constant-temperature (38° C.) water circulator (Lauda E100, Wobser GMGH and Co., Konigshofell, Germany).
Prior to each test, the upper surface of each reservoir was coated with a thin layer of high-vacuum silicone grease (Dow Corning Corp., Midland, Mich.), and the cells then filled (approx. 6 ml. capacity) or topped-off with the following: (1) expired human red blood cells suspended in citrate-phosphate-dextrose-adenine (CPDA) solution, not more than 1 month past expiration date, and to which 110 mg ATP/35 ml. blood-CPDA had been added on the day of testing; or (2) CPDA+ATP×10^−3, usually made up or diluted to 10^−3 ATP on the day of testing.
The filled cells were then covered with an Edicol collagen membrane strip (Devro, Sandy Run, S.C.), and then with a just-treated (110 μl of 4.54 nmol/μl treatment or control solution) organdy cloth strip (G Street Fabrics, Rockville, Md.).
Mosquitoes used in the tests were either Aedes aegypti (Liverpool) or Aedes albopictus (Asian Tiger mosquitoes (ATMs)). Ae. aegypti and Ae. albopictus were originally obtained from colonies at the Walter Reed Army Institute of Research (WRAIR), Silver Spring, Md., and were maintained in colonies at the Beltsville Agricultural Research Center, USDA, ARS, Beltsville, Md. The larvae were reared (Gerber, E. J., et al., Manual for mosquito rearing and experimental techniques, Am. Mosq. Control Assoc. Bull. 5 (revised), AMCA, Inc., Lake Charles, La. (1994)) by feeding larvae ground tropical fish pellets (Hikari Cichlid Gold Fish Food, Kamihata Fish Ind. Ltd., Himeji, Japan, www.hikari.info). Adults were held at 12:12 h (light:dark) photoperiod at 26° C. and 50% RH, and fed with a cotton pad moistened with 10% aqueous sucrose solution. For both species, adult mosquitoes used in the tests were between 5-10 days old, and were kept on water pads only for 24 hrs. prior to testing. Ae. aegypti used in a given test session were all loaded into K&D modules at one time, with five adult females/cell, and tested within I-2 hrs.
K&D modules containing five adult females/cell were placed over a Teflon separator atop each reservoir; the sliding floors opened allowing access to the treated organdy cloth and membrane-covered cell, and the number of mosquitoes biting (proboscis inserted through the cloth) and/or observed to be engorged within each cell at the end of a 3-5 min. exposure period was recorded. Mosquitoes were used only once in a test, and then frozen and discarded.
Only tests in which three or more females fed in the control cell were analyzed, as lower feeding rates are indicative of substandard feeding readiness of that group of mosquitoes.
Feeding/probing responses observed on control, standard, and experimental compound-treated cells were compared using an R-code statistical analysis (Chauhan, K. R., et al., Journal of Medical Entomology, 42: 643-646 (2005)).

[3] = system: mosquitoes; details: compared with matching control traps baited with CO2; cited from earlier work
[4] = CO2 (dry ice) + air paired with 0.1% Okoumal
[5] = CO2 (dry ice) + air paired with 0.1% cyclopentanone
[6] = CO2 (dry ice) + air paired with 1% Okoumal
[7] = CO2 (dry ice) + air paired with 1% cyclopentanone
[8] = CO2 (dry ice) + air paired with air
[9] = 0.1% concentration, paired with CO2 (dry ice) + air
[10] = 1% concentration, paired with CO2 (dry ice) + air

Compound | fed (mean of triplicates) ([1]; 0.10% concentration) | probed (mean of triplicates) ([1]; 0.10% concentration) | fed (mean of triplicates) ([1]; 1.00% concentration) | probed (mean of triplicates) ([1]; 1.00% concentration) | fed (mean of triplicates) ([1]; 5% concentration) | probed (mean of triplicates) ([1]; 5% concentration) | further results
O=C=O [CO2 (dry ice), Carbon dioxide, reference compound] | – | – | – | – | – | – | mean fed [1, 4]: 3; mean probed [1, 4]: 3.7; mean fed [1, 5]: 2.8; mean probed [1, 5]: 3.1; mean fed [1, 6]: 2; mean probed [1, 6]: 2.2; mean fed [1, 7]: 2.1; mean probed [1, 7]: 2.3; mean fed [1, 8]: 1.8; mean probed [1, 8]: 2.1
C1CCC2(C1)OCCO2 [Compound I-90] | 2.7 | 5.7 | 4 | 8.3 | 3 | 8.7 | feeding attraction, in words [1]: consistent feeding attraction
CC1COC2(CCCC2)O1 (centres unmarked) [Compound I-95] | – | – | 3.3 | 12 | 3.3 | 8.3 | –
CC1COC2(CCCCC2)O1 (centres unmarked) [Compound I-96] | 3 | 6.3 | 2.7 | 8.3 | 2.7 | 12.7 | feeding attraction, in words [1]: consistent feeding attraction
COC1(OC)CCCC1 [Compound I-152] | – | – | 0.7 | 1.3 | 1 | 1.7 | –
COC1(OC)CCCCC1 [Compound I-182] | – | – | 2.7 | 5.7 | 2 | 12.3 | –
CCN(CC)C(=O)c1cccc(C)c1 [Deet, reference compound] | – | – | – | – | – | – | mean fed [2]: 0.1; mean probed [2]: 0.1
O=C1CCCCC1 [cyclohexanone, reference compound] | – | – | 0.3 | 0.7 | 1.7 | 3.7 | –
O=C1CCCC1 [cyclopentanone, reference compound] | 3 | 7 | 2 | 5.7 | 1 | 1.7 | attractiveness of baited traps, in words [3]: equivalent to that of matching control traps baited with CO2; mean fed [1, 9]: 2.6; mean probed [1, 9]: 2.2; mean fed [1, 10]: 2.1; mean probed [1, 10]: 2.8
